Patent publication US20120083464A1, “NEUROPROTECTIVE PROPERTIES OF 5'-METHYLTHIOADENOSINE” (priority 2009, published 2012)
Entries after “also recorded” stand apart in the source; their conditions may differ.

Legend:
[1] = system: rats after focal ischemia (MCAO); assay type: in vivo
caspase 3 activity = test: NMDA-mediated increase in caspase 3 activity in pure neuronal culture; assay type: cell-based, Sprague-Dawley rat; details: NMDA 300 μM, MTA 100 to 500 μM
Protocol: Primary cultures of brain cortical neurons were essentially prepared as described previously (Bruno et al., 2001, Eur. J. Neurosci., 13:1469-1478). The fronto-lateral cortical lobes were dissected out of Sprague-Dawley embryonic day 17 foetuses and were mechanically dissociated in Hanks' balanced solution. The cortical lobes were triturated by aspirating 7-10 times using a Pasteur pipette with a flame-narrowed tip. […]
Cortical neurons or mixed cortical neurons and glia were plated on poly-L-lysine-coated 6-well culture plates and after 7 DIV, cells were treated with vehicle or NMDA (300 μM) for different periods of time. […] Extracts were then centrifuged at 5,000×g for 10 min at 4° C., and protein content was determined by using the BCA protein assay according to the manufacturer instructions. Cell extracts (40 μg of protein) were incubated in reaction buffer (25 mM Hepes, 10% sucrose, 0.1% CHAPS, 10 mM DTT) containing 50 μM fluorescence substrate Z-DEVD-AFC at 37° C. for 1 h. Cleavage of the AFC fluorophore was determined in a spectrofluorometer at excitation wavelength of 400 nm and fluorescence was detected at an emission wavelength of 505 nm. Caspase 3 activity was expressed as units of fluorescence/mg of protein/h (Posadas et al., 2009, Pharm. Res., In press).

[2] = system: hippocampal neurons after pilocarpine-induced status epilepticus; test: Pilocarpine model of temporal lobe epilepsy (status epilepticus), hippocampal histology; assay type: in vivo, Sprague-Dawley rats; details: for quantification of cells in area CA1 at 30 days after SE: preliminary
From the text: We compared two MTA treatment regimens to examine its neuroprotective effect on pilocarpine-induced SE in adult rats. One regimen involved 5 days of MTA treatment beginning beginning 2 days before SE (pre-SE MTA). The other regimen, a more clinically relevant protocol, consisted of MTA treatment for 3 days beginning at the termination of SE (post-SE MTA).
Young adult (175-200 g), male Sprage-Dawley rats were divided into four MTA treatment groups, 9-11 rats per group. In group A, rats were subjected to pilocarpine-induced status epilepticus (SE). Following 90 minutes of continuous seizure activity, SE was stopped by a single administration of diazepam (10 mg/kg). The rats were injected either with vehicle or MTA once daily for 3 days. Rats were sacrificed at day 4 after SE, and their brains perfusion fixed, frozen and sectioned for histology. In group B, treatment of rats was the same as Group A except that the rats were sacrificed at day 30 after SE. In group C, rats were treated with MTA once daily for two days. On the third day, rats underwent pilocarpine-induced SE. The rats were continuously treated with MTA once daily for 3 more days; controls received placebo The rats were then anesthetized and sacrificed day 4 after SE. In group D, rats were treated the same way as Group C except that the rats were sacrificed on 30 days after SE.
The sections were subjected to cresyl violet (Nissl) staining and NeuN immunostaining to examine cell loss. Timm staining to identify mossy fiber sprouting was performed on the 30-day survival group.

[3] = system: MAPK, p38/SAPK and STAT3 pathways; test: Intracellular phosphorylation in PC12 cells (Luminex); assay type: cell-based, rat; details: PC12 cells after MTA-induced differentiation, four days
From the text: The phosphorylation of different intracellular proteins was detected using Luminex technology. After the neurite differentiation assay the PC12 cells were received in lysis buffer and tested using different antibodies: total Akt/PKB, total p38/SAPK, total STAT3, total ERK/MAPK, total P70 S6 Kinase, phosphorolyated Akt/PKB (Ser473), phosphorylated Akt/PKB (Thr 308), phosphorylated p38/SAPK (Thr180/Tyr182), phosphorilyated STAT 3 (Tyr705/Ser 727), phosphorylated ERK/MAPK (Thr185/Tyr187) and phosphorylated P70 S6 Kinase (Thr412).

RN22 cells = test: Hydrogen peroxide stress in RN22 cells, MTT cell viability; assay type: cell-based, rat; details: hydrogen peroxide 100 μM, twenty-four hours; MTA 25 μM-3 mM
Protocol: RN22 cells were maintained at 37° C. in DMEM medium supplemented with 10% of fetal bovine serum and penicillin/streptomycine. The assays against stress with copper sulphate were conducted using 24-well plates in DMEM medium without serum. After allowing cell adherence for three days, NGF (100 ng/ml) or MTA was added to different concentrations half an hour before the copper sulphate (150 μM). After twenty-four hours, cell viability was quantified by MTT assay and ROS production was quantified by fluorescence. Assays against stress with hydrogen peroxide were conducted in the same way as the foregoing, using 100 μM hydrogen peroxide as a stress-producing agent.
We determined the quantity of MTT (Sigma) that is reduced to insoluble formazan. After separating the medium, the water-insoluble formazan is solubilised in DMSO and the dissolved material is measured in a spectrophotometer at 570 nm.

`CSC[C@H]1O[C@@H](n2cnc3c(N)ncnc32)[C@H](O)[C@@H]1O` [MTA, 5′-methylthioadenosine] was tested, and the “damaged area (TTC staining) versus vehicle” value ([1]; MTA 30 mg/kg i.p. twice daily from 30 min after onset of ischemia, 3 days of reperfusion) was “did not show a reduction; also recorded: does not protect”, the “toxicity to rats after ischemia” value ([1]; MTA 100 mg/kg i.p. twice daily) was “toxic” and the “effect on NMDA-mediated increase in caspase 3 activity” value (caspase 3 activity) was “Lack of effect”. The “hippocampal neuronal loss, qualitative (Nissl stain, NeuN immunohistochemistry)” value ([2]; MTA started before or after SE, early and late timepoints, dentate hilus, CA1, CA3) was “qualitatively reduced neuronal loss; also recorded: qualitatively more Nissl-stained cells”, the “mossy fiber sprouting (Timm stain)” value ([2]; late timepoint, either MTA group) was “No qualitative difference” and the “quantification of cells in area CA1 at 30 days after SE” value ([2]; post-SE MTA group, p=0.057) was “trend toward neuroprotection; also recorded: non-significant trend toward increased cell numbers”. The “hippocampal NeuN immunoreactivity at 30 days after SE (representative example)” value ([2]; post-SE MTA, dentate gyrus) was “only mild cell loss”, the “quantification of cells in area CA1 at 30 days after SE” value ([2]; pre-SE MTA group, p=0.02) was “significant neuroprotective effects” and the “hippocampal NeuN immunoreactivity at 30 days after SE (representative example)” value ([2]; pre-SE MTA, dentate gyrus and pyramidal cell layer) was “good preservation of neurons”. For the same compound, the “phosphorylation of intracellular proteins: MAPK, p38/SAPK and STAT3 pathways” value [3] was “activation” and the “cell viability (MTT) under hydrogen peroxide stress” value (RN22 cells) was “capable of maintaining cell viability”.
